Measurements taken from ChEMBL document CHEMBL1157798, “Iminochromene inhibitors of dynamins I and II GTPase activity and endocytosis” (J Med Chem, 2010).
Active and inactive are the calls of the source. No cut-off for these calls is given here.

What was measured:
[1] = Inhibition of sheep brain dynamin 1 by malachite green GTPase assay; design: species or system Ovis aries
Ovis aries [2] = species: Ovis aries; test: Inhibition of sheep brain dynamin 1 at 100 uM by malachite green GTPase assay
Ovis aries [3] = species: Ovis aries; test: Inhibition of sheep brain dynamin 1 at 300 uM by malachite green GTPase assay
Dynamin-1 = biological target: T1, Dynamin-1 (Rattus norvegicus, UniProt P21575); test: Inhibition of dynamin 1-mediated synaptic vesicle endocytosis in Sprague-Dawley rat synaptosomes assessed as uptake of FM 4-64 dye after 30 mins by automated acquisition and analysis system; format: subcellular, Brain
T1 sequence (P21575 whole entry): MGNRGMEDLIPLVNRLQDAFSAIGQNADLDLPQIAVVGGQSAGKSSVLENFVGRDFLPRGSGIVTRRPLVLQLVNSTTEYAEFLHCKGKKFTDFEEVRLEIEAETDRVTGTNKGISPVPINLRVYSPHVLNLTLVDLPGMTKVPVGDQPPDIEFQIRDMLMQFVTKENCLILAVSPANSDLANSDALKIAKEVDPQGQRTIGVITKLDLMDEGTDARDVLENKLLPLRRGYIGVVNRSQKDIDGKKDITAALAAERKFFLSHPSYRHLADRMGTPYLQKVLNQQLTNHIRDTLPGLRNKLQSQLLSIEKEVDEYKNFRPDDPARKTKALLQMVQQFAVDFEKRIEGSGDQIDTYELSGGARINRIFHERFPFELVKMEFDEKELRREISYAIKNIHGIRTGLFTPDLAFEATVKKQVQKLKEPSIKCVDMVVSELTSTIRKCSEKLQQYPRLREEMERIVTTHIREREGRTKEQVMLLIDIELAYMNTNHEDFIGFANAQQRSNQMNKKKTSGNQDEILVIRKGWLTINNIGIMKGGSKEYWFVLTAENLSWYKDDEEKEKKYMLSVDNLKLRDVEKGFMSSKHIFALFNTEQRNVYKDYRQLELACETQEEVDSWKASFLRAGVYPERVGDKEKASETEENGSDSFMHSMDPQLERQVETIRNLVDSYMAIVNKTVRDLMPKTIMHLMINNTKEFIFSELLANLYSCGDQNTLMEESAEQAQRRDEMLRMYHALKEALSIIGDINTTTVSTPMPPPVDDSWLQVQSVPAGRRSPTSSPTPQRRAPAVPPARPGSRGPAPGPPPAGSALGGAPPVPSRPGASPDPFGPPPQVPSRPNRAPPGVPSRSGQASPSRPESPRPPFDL

U2OS = test: Cytotoxicity against human U2OS cells assessed as change in cell morphology after 30 mins; format: cell-based; settings: 0.5 h

Row | Compound | IC50 [1] | inhibition (Ovis aries [2]) | other results
1 | N#C/C(=C\c1ccc(O)c(O)c1)C(=O)NCCCNC(=O)/C(C#N)=C/c1ccc(O)c(O)c1 | 1.7 µM |  | 
2 | N=c1oc2c(O)c(O)ccc2cc1C(=O)NCCCCNC(=O)c1cc2ccc(O)c(O)c2oc1=N | 4.3 µM |  | 
3 | N=c1oc2ccccc2cc1C(=O)NCCCCCCNC(=O)c1cc2ccccc2oc1=N | > 300 µM | < 50% | 
4 | N#C/C(=C\c1ccccc1)C(=O)NCCCNC(=O)/C(C#N)=C/c1ccc(O)c(O)c1 | 146 µM |  | 
5 | N=c1oc2cc(O)ccc2cc1C(=O)NCCCCCCNC(=O)c1cc2ccc(O)cc2oc1=N |  | < 50% | 
6 | N=c1oc2c(O)c(O)ccc2cc1C(=O)NCCCCCCNC(=O)c1cc2ccc(O)c(O)c2oc1=N | 70 µM |  | 
7 | N=c1oc2cc(O)ccc2cc1C(=O)NCCNC(=O)c1cc2ccc(O)cc2oc1=N | 100 µM |  | inhibition (Ovis aries [3]): inactive
8 | N=c1oc2cc(O)c(O)cc2cc1C(=O)NCCCCCNC(=O)c1cc2cc(O)c(O)cc2oc1=N | 17 µM |  | 
9 | N=c1oc2ccccc2cc1C(=O)NCCCCCNC(=O)c1cc2ccccc2oc1=N | > 300 µM | < 50% | 
10 | N=c1oc2cc(O)c(O)cc2cc1C(=O)NCCNC(=O)c1cc2cc(O)c(O)cc2oc1=N | 6 µM |  | 
11 | N=c1oc2c(O)cccc2cc1C(=O)NCCNC(=O)c1cc2cccc(O)c2oc1=N |  | < 50% | 
12 | N=c1oc2ccccc2cc1C(=O)NCCCNC(=O)c1cc2ccccc2oc1=N | > 300 µM | < 50% | 
13 | N=c1oc2c(O)c(O)ccc2cc1C(=O)NCCNC(=O)c1cc2ccc(O)c(O)c2oc1=N | 0.33 µM |  | IC50 (Dynamin-1): Not Active
14 | N=c1oc2cc(O)c(O)cc2cc1C(=O)NCCCNC(=O)c1cc2cc(O)c(O)cc2oc1=N | 0.26 µM |  | IC50 (Dynamin-1; read-out: IC50): 40.4 µM; Activity (U2OS): Non-toxic
15 | N=c1oc2c(O)c(O)ccc2cc1C(=O)NCCCCCNC(=O)c1cc2ccc(O)c(O)c2oc1=N | 19 µM |  | 
16 | N=c1oc2cc(O)c(O)cc2cc1C(=O)NCCCCNC(=O)c1cc2cc(O)c(O)cc2oc1=N | 3.2 µM |  | 
17 | N=c1oc2c(O)cccc2cc1C(=O)NCCCCCCNC(=O)c1cc2cccc(O)c2oc1=N |  | < 50% | 

Now from value to molecule, other results behind:

Row | IC50 [1] | inhibition (Ovis aries [2]) | Compound | other results
18 | 51 µM |  | N#C/C(=C\c1ccc(O)cc1)C(=O)NCCCNC(=O)/C(C#N)=C/c1ccc(O)c(O)c1 | 
19 | > 300 µM | < 50% | N=c1oc2ccccc2cc1C(=O)NCCCCNC(=O)c1cc2ccccc2oc1=N | 
20 | 6.4 µM |  | N#C/C(=C\c1ccc(N=[N+]=[N-])cc1)C(=O)NCCCNC(=O)/C(C#N)=C/c1ccc(O)c(O)c1 | 
21 |  | < 50% | N=c1oc2c(O)cccc2cc1C(=O)NCCCCNC(=O)c1cc2cccc(O)c2oc1=N | 
22 |  | < 50% | N=c1oc2c(O)cccc2cc1C(=O)NCCCCCNC(=O)c1cc2cccc(O)c2oc1=N | 
23 | 44 µM |  | COc1ccc(/C=C(\C#N)C(=O)NCCCNC(=O)/C(C#N)=C/c2ccc(O)c(O)c2)cc1OC | 
24 |  | < 50% | N=c1oc2cc(O)ccc2cc1C(=O)NCCCCNC(=O)c1cc2ccc(O)cc2oc1=N | 
25 | 82 µM |  | N=c1oc2cc(O)c(O)cc2cc1C(=O)NCCCCCCNC(=O)c1cc2cc(O)c(O)cc2oc1=N | 
26 | 36.6 µM |  | N=c1oc2c(O)cccc2cc1C(=O)NCCCNC(=O)c1cc2cccc(O)c2oc1=N | IC50 (Dynamin-1): Not Active; Activity (U2OS): Non-toxic
27 | 36 µM |  | N#C/C(=C\c1ccc(C2(C(F)(F)F)N=N2)cc1)C(=O)NCCCNC(=O)/C(C#N)=C/c1ccc(O)c(O)c1 | 
28 |  | < 50% | N=c1oc2cc(O)ccc2cc1C(=O)NCCCCCNC(=O)c1cc2ccc(O)cc2oc1=N | 
29 | 0.45 µM |  | N=c1oc2c(O)c(O)ccc2cc1C(=O)NCCCNC(=O)c1cc2ccc(O)c(O)c2oc1=N | IC50 (Dynamin-1; read-out: IC50): 99.5 µM; Activity (U2OS): Non-toxic
30 | > 300 µM | < 50% | N=c1oc2ccccc2cc1C(=O)NCCNC(=O)c1cc2ccccc2oc1=N | 
31 | 17.3 µM |  | N=c1oc2cc(O)ccc2cc1C(=O)NCCCNC(=O)c1cc2ccc(O)cc2oc1=N | IC50 (Dynamin-1; read-out: IC50): 66.1 µM
